Measurements from patent US6150414A, “Compositions and methods for treating viral infections” (priority 1992, dated 2000).
Several values for one entry are separate records, joined by “and”; a condition that tells them apart may be missing. Identical values can stand only once. Like-named read-outs stand apart in the source and are kept apart here.

What was measured:
[1] = test system: Friend Leukemia Virus; test: In vivo inhibition of Friend Leukemia Virus splenomegaly, intravenous 1-2 hours post infection (Example 10); set-up: species or system mice; conditions: Mus musculus, read-out: EC50 for FV-induced splenomegaly
Protocol: (3) In vivo inhibition of Friend Leukemia Virus Splenomegaly performed as described in Example 1 above except that the compounds were administered intravenously 1-2 hours post infection.
(§1) The results presented above in Table IX are presented as EC50 concentrations. These are the effective concentrations which inhibit 50% of the viruses in micromolar concentrations.

[2] = test system: Friend Leukemia Virus; test: Inhibition of Friend Leukemia Virus-induced splenomegaly in mice, compounds intraperitoneally 24 hours after virus (Example 1(a)); format: in vivo, BALB/c mice; set-up: Actual Spleen Weight / Average Spleen Weight: unit not given here; conditions: for inhibition in vivo at 0.1 mg / inhibition in vivo at 0.05 mg / inhibition in vivo at 0.2 mg: Mus musculus, ip; for Pooled Average % Inhibition: pooled over 50, 100, 200, 2 × 100 micrograms
Excerpt: The effects of compositions according to the present invention on infection of mammals with Friend Leukemia Virus (FV) were examined.
Friend Leukemia Virus is an aggressive retrovirus which induces an acute erythroleukemia in sensitive strains of mice such as BALB/c and NIH swiss mice as described in Friend, C. J., Exp. Med. 105: 307-324, 1957; Friend, C. et al. Proc. Natl. Acad. Sci. USA 68: 378-383, 1971; Friend, C. et al. Natl. Cancer Inst. Mongr. 22: 508-552, 1966. The malignant transformation is the result of the combined activities of the Spleen Focus Forming Virus (SFFV) and the ecotropic Murine Friend Leukemia Helper Virus (F-MuLV). The acute erythroleukemia is characterized by hepatosplenomegaly (a marked increase in the size of the spleen and liver) and a severe anemia.
Friend Leukemia Virus was prepared by homogenizing the enlarged spleen of a mouse previously infected with FV, 10 days after intravenous virus injection. The spleen was homogenized in phosphate buffered saline in a volume equal to ten times the weight of the isolated spleen.
(§2) The effects of compositions according to the present invention on the increase in spleen size (splenomegaly) of BALB/c mice (Jackson Labs, Bar Harbor, ME) was examined. In these experiments, the virus (10^6 focus forming units--FFU) was inoculated intravenously and 100 micrograms of the compounds indicated in Table II were administered to the mice intraperitoneally 24 hours later. Each compound was administered once to two mice. The animals were sacrificed ten days later and their spleens weighed.
The present assay has been developed from similar assays using hypericin or pseudohypericin and employing higher numbers of experimental animals per group (e.g. 4 animals). It was discovered however that the specificity and sensitivity of this assay are such that an experimental group of two animals is of more than adequate predictive value.
(§3) As used in Table II (and subsequent Tables of this Example l(a) and (b), "average percent inhibition" is calculated as follows: [formula] wherein "ASWNC" designates "average spleen weight of negative control"; "ASWE" designates "average spleen weight of experimental (treated) subject"; and "ASWPC" designates "average spleen weight of positive control". Average spleen weight is the numerical average of spleen weights of each experimental group (in Table II each such group includes two members).
In these experiments, the virus (10^6 focus forming units--FFU) was inoculated intravenously, and the indicated doses of the antiviral compounds of this invention were administered to the BALB/c mice intraperitoneally 24 hours later. The animals were then sacrificed ten days later and their spleens weighed.
Pseudohypericin was diluted in phosphate buffered saline with 1% ethanol.
An expanded series of experiments was next performed in which various concentrations (i.e. 50, 100, 200 and 2×100, i.e., 100 micrograms administered twice) of a different set of PAC compounds (numbers 16-29 and 30-36 in Table III below) were administered intraperitoneally each according to the same protocol described above. Compounds 16-29 all had 3-5 fused, aromatic rings and no side groups except for oxygen or hydroxyl groups, whereas compounds 30-36 all had 3 fused aromatic rings and side chains selected from the group of oxygen, hydroxyl and methyl.
When 2 doses of the compounds were given, the second dose was administered 24-48 hours after the first injection. The animals were infected and splenomegaly determined as above for the compounds in Table II. In Table III, "pooled average percent inhibition" is calculated by adding the average percent inhibition for each experiment with the same compound and dividing the sum by the number of experiments (i.e. the number 4). […]

[3] = test system: retroviruses (virions); test: Direct inactivation of retroviruses (virions) in vitro (Example 10); format: biochemical, Radiation Leukemia Virus; conditions: Table IX
Protocol: (§4) Supernatants (10 ml/tube) from B10.T(6R) cells (Meruelo et al. J. Exp. Med. 147: 470-487, 1978) chronically infected with Radiation Leukemia Virus (RadLV) were obtained by centrifugation of cells in culture at 4° C., 3500 rpm for 15 minutes. The top 2/3 of the supernatant were removed and aliquots were incubated for 30 minutes on ice with the indicated amounts of hypericin or protohypericin. […] Thereafter, supernatants were centrifuged at 100,000×g using a TI70 rotor (Beckman Instruments) for 1 hour at 4° C. The pellet was […] and analyzed for reverse transcriptase activity as follows.
(§5) The reverse transcriptase assay was performed in a volume of 100 microliters containing the following components:
(1) Direct inactivation of retroviruses in vitro, performed as in Example 3 above;
as §1

[4] = test system: Friend Leukemia Virus; test: FV-induced splenomegaly, PAC compounds in combination with AZT (Example 1(b)); format: in vivo, BALB/c mice; set-up: Spleen weight / Average Spleen Weight: unit not given here; conditions: for Spleen weight: single animal
Protocol: as §2, §3
The compounds of the present invention (100 micrograms per mouse) were also tested in combination with AZT (20 micrograms per mouse, twice a day) using otherwise the same methods as in Example 1(a) above. As representatives, compound #9 above (3-bromophenanthro (3,4-C), phenanthrene) and compound #10 (diindeno (1, 2, 3-CD/1', 2', 3'-IM) Perylene) were chosen. […] The compounds were administered i.p. either once or five times (once per day) alone or together with AZT (20 micrograms of AZT per mouse twice a day for five days?). Thus, in experiments where AZT was administered five times, a total of […] of AZT was received by each mouse (with a total of 500 micrograms of the PAC compound).

[5] = molecular target: T1, Radiation Leukemia Virus reverse transcriptase (Radiation murine leukemia virus, UniProt P11227); test: Radiation Leukemia Virus reverse transcriptase assay, supernatants from infected AQR cells (Examples 4 and 9); format: biochemical; conditions: for Average CPM / CPM / Average percent inhibition: Table VI; for CPM: replicate
T1 construct: the reverse transcriptase of Radiation Leukemia Virus; endogenous in cells
Protocol: as §4, §5
The antiviral activity of HHA was tested using AQR (Bach and Meruelo, J. Exp. Med. 160:270-285, 1984) cells chronically infected with Radiation Leukemia Virus in the reverse transcriptase assay as described in Example 3 above.
The assays were conducted using the same procedure as in Example 3 above, using supernatants from infected AQR cells.

[6] = dose 2 × 100 (micrograms) i.p., Table III
[7] = dose 50 (micrograms) i.p., Table III
[8] = dose 100 (micrograms) i.p., Table III
[9] = dose 200 (micrograms) i.p., Table III
[10] = 1X, 100 micrograms per mouse i.p.
[11] = 5X, 100 micrograms per mouse i.p. once per day
[12] = 100 micrograms i.p. once, 24 h after FV, Table II
[13] = dose 2 × 100 (micrograms) i.p., Table III, read-out: Average Perdosage % Inhibition
[14] = dose 50 (micrograms) i.p., Table III, read-out: Average Perdosage % Inhibition
[15] = dose 100 (micrograms) i.p., Table III, read-out: Average Perdosage % Inhibition
[16] = dose 200 (micrograms) i.p., Table III, read-out: Average Perdosage % Inhibition

Compound: O=C1c2ccccc2C(=O)c2cc(CO)ccc21 [Compound 35, 2-(hydroxymethyl)-anthraquinone]
- EC50 [1]: 145 µM
- inhibition in vivo at 0.1 mg ([2]; read-out: Average Perdosage % Inhibition, dose 2 × 100 (micrograms) i.p., Table III): 75%
- inhibition in vivo at 0.05 mg ([2]; read-out: Average Perdosage % Inhibition, dose 50 (micrograms) i.p., Table III): 62%
- inhibition in vivo at 0.1 mg ([2]; read-out: Average Perdosage % Inhibition, dose 100 (micrograms) i.p., Table III): 64%
- inhibition in vivo at 0.2 mg ([2]; read-out: Average Perdosage % Inhibition, dose 200 (micrograms) i.p., Table III): 77%
- Average Spleen Weight [2, 6]: 0.6575
- Average Spleen Weight [2, 7]: 0.8921
- Average Spleen Weight [2, 8]: 0.8615
- Average Spleen Weight [2, 9]: 0.6086
- Pooled Average % Inhibition ([2]; Table III): 70%
- EC50 [3]: > 41 µM

Compound: c1ccc2c(c1)-c1ccc3c4ccc5c6c(ccc(c7ccc-2c1c37)c64)-c1ccccc1-5 [Compound 10, Diindeno(1,2,3-CD/1',2',3'-IM)Perylene]
- % Inhibition [4, 10]: 22%
- Average Spleen Weight [4, 10]: 1.724
- Spleen weight [4, 10]: 1.7816 and 1.6664
- % Inhibition [4, 11]: 46%
- Average Spleen Weight [4, 11]: 1.2358
- Spleen weight [4, 11]: 1.5771 and 0.8945
- Average % Inhibition [2, 12]: 44.3%
- Average Spleen Weight [2, 12]: 0.4767
- Average % Inhibition ([2]; 100 micrograms i.p. once, 24 h after FV, Table II, listed as #10): > 40%
- Actual Spleen Weight ([2]; 100 micrograms i.p. once, 24 h after FV, Table II, single animal): 0.4809 and 0.4724

Compound: Cc1cc(O)c2c(c1)C(=O)c1cc(O)cc(O)c1C2=O [Compound 34, Emodin]
- inhibition in vivo at 0.1 mg [2, 13]: 42%
- inhibition in vivo at 0.05 mg [2, 14]: 41%
- inhibition in vivo at 0.1 mg [2, 15]: 50%
- inhibition in vivo at 0.2 mg [2, 16]: 20%
- Average Spleen Weight [2, 6]: 1.2834
- Average Spleen Weight [2, 7]: 1.2914
- Average Spleen Weight [2, 8]: 1.1333
- Average Spleen Weight [2, 9]: 1.6902
- Pooled Average % Inhibition ([2]; Table III): 38%
- EC50 [3]: > 37 µM

Compound: CC(=O)Oc1cc(C)c2c3c(C)cc(OC(C)=O)c4c(=O)c5c(OC(C)=O)cc(OC(C)=O)c6c7c(OC(C)=O)cc(OC(C)=O)c8c(=O)c1c2c(c87)c(c43)c56 [HHA, Hypericin hexaacetate]
- EC50 [1]: > 199 µM
- Average CPM ([5]; 0.05 micrograms): 466,981 CPM
- CPM ([5]; 0.05 micrograms): 441,410 CPM and 492,552 CPM
- Average CPM ([5]; 0.1 micrograms): 202,454 CPM
- Average percent inhibition ([5]; 0.1 micrograms): 54.8%
- CPM ([5]; 0.1 micrograms): 208,882 CPM and 196,026 CPM
- Average CPM ([5]; 0.5 micrograms): 501,386 CPM
- CPM ([5]; 0.5 micrograms): 518,336 CPM and 484,356 CPM
- Average CPM ([5]; 1 microgram): 451,634 CPM
- CPM ([5]; 1 microgram): 401,306 CPM and 501,962 CPM
- Average CPM ([5]; 5 micrograms): 205,891 CPM
- Average percent inhibition ([5]; 5 micrograms): 54.1%
- CPM ([5]; 5 micrograms): 221,098 CPM and 190,604 CPM
- Average CPM ([5]; 10 micrograms): 91,440 CPM
- Average percent inhibition ([5]; 10 micrograms): 79.6%
- CPM ([5]; 10 micrograms): 96,654 CPM and 86,226 CPM
- Average CPM ([5]; 50 micrograms): 5,305 CPM
- Average percent inhibition ([5]; 50 micrograms): 98.8%
- CPM ([5]; 50 micrograms): 5,236 CPM and 5,374 CPM
- Average CPM ([5]; 100 micrograms): 2,545 CPM
- Average percent inhibition ([5]; 100 micrograms): 99.4%
- CPM ([5]; 100 micrograms): 2,750 CPM and 2,340 CPM
- inhibition of RadLV reverse transcriptase activity ([5]; Example 4): about as active a protohypericin in inhibiting the RadLV reverse transcriptase activity
- EC50 [3]: 12.9 µM

Compound: O=C1c2ccccc2Cc2ccccc21 [Compound 30, Anthrone]
- EC50 ([1]; i.v. 1-2 hours post infection, Table IX): 267 µM
- inhibition in vivo at 0.1 mg [2, 13]: 57%
- inhibition in vivo at 0.05 mg [2, 14]: 31%
- inhibition in vivo at 0.1 mg [2, 15]: 63%
- inhibition in vivo at 0.2 mg [2, 16]: 62%
- Average Spleen Weight [2, 6]: 0.9878
- Average Spleen Weight [2, 7]: 1.4953
- Average Spleen Weight [2, 8]: 0.8790
- Average Spleen Weight [2, 9]: 0.9092
- Pooled Average % Inhibition ([2]; Table III): 53%
- EC50 [3]: > 51 µM

Compound: Brc1cc2ccc3ccc4ccccc4c3c2c2c1ccc1ccccc12 [Compound 9, 3-Bromophenanthro(3,4-C)Phenanthrene]
- % Inhibition [4, 10]: 3%
- Average Spleen Weight [4, 10]: 2.1074
- Spleen weight [4, 10]: 2.0831 and 2.1317
- % Inhibition [4, 11]: 24%
- Average Spleen Weight [4, 11]: 1.681
- Spleen weight [4, 11]: 1.6262 and 1.7363
- Average Spleen Weight [2, 12]: 0.8756
- inhibition of FV-induced splenomegaly / anti-retroviral activity ([2]; Example 1(a)): weak anti-retroviral activity
